Laboratory results reported in article PMC9917560, “Design, Synthesis and Antimicrobial Evaluation of New N-(1-Hydroxy-1,3-dihydrobenzo[c][1,2]oxaborol-6-yl)(hetero)aryl-2-carboxamides as Potential Inhibitors of Mycobacterial Leucyl-tRNA Synthetase” (International Journal of Molecular Sciences, 2023).
Values after ≈ are worked out from the molar mass of the structure shown. Read-outs that look alike come from different tables or passages of the source.

Key:
[1] = test system: Mycobacterium tuberculosis H37Ra ITM-M006710 (ATCC 9431); experiment: Antimycobacterial microdilution (resazurin) vs Mtb H37Ra; type: cell-based
[2] = test system: Mycobacterium tuberculosis H37Rv CNCTC My 331/88 (ATCC 27294); experiment: Microplate Alamar Blue assay vs Mtb H37Rv; type: cell-based; conditions: Mycobacterium tuberculosis
[3] = test system: Mycobacterium kansasii DSM 44,162 (ATCC 12478); experiment: Antimycobacterial microdilution (resazurin) vs M. kansasii; type: cell-based; conditions: read-out: MIC M. kansasii
[4] = test system: Mycobacterium avium DSM 44,156 (ATCC 25291); experiment: Antimycobacterial microdilution (resazurin) vs M. avium; type: cell-based; conditions: Mycobacterium avium, Middlebrook 7H9, resazurin; read-out: MIC M. avium
[5] = test system: Mycolicibacterium aurum DSM 43,999 (ATCC 23366); experiment: Antimycobacterial microdilution (resazurin) vs M. aurum; type: cell-based; conditions: Middlebrook 7H9, resazurin, read-out: MIC M. aurum
[6] = test system: Mycolicibacterium smegmatis DSM 43,465 (ATCC 607); experiment: Antimycobacterial microdilution (resazurin) vs M. smegmatis; type: cell-based; conditions: Middlebrook 7H9, resazurin, read-out: MIC M. smeg.
[7] = test system: Staphylococcus aureus subsp. aureus CCM 4223 (ATCC 29213); experiment: Antibacterial microdilution broth (EUCAST); type: cell-based; conditions: read-out: MIC Staphylococcus aureus subsp. aureus
[8] = test system: methicillin-resistant Staphylococcus aureus subsp. aureus (MRSA) CCM 4750 (ATCC 43300); experiment: microbe, parasite or virus in culture; type: cell-based; conditions: read-out: MIC Methicillin-resistant Staphylococcus aureus subsp. aureus
[9] = test system: Staphylococcus epidermidis CCM 4418 (ATCC 12228); experiment: Antibacterial microdilution broth (EUCAST); type: cell-based; conditions: read-out: MIC Staphylococcus epidermidis
[10] = test system: Enterococcus faecalis CCM 4224 (ATCC 29212); experiment: Antibacterial microdilution broth (EUCAST); type: cell-based; conditions: read-out: MIC Enterococcus faecalis
[11] = test system: Escherichia coli CCM 3954 (ATCC 25922); experiment: Antibacterial microdilution broth (EUCAST); type: cell-based; conditions: Escherichia coli, read-out: MIC Escherichia coli
[12] = test system: Klebsiella pneumoniae CCM 4415 (ATCC 10031); experiment: Antibacterial microdilution broth (EUCAST); type: cell-based; conditions: Klebsiella pneumoniae, read-out: MIC Klebsiella pneumoniae
[13] = test system: Acinetobacter baumannii DSM 30007 (ATCC 19606); experiment: Antibacterial microdilution broth (EUCAST); type: cell-based; conditions: read-out: MIC Acinetobacter baumannii
[14] = test system: Pseudomonas aeruginosa CCM 3955 (ATCC 27853); experiment: Antibacterial microdilution broth (EUCAST); type: cell-based; conditions: read-out: MIC Pseudomonas aeruginosa
[15] = test system: Candida albicans CCM 8320 (ATCC 24433); experiment: Antifungal microdilution broth (EUCAST); type: cell-based; conditions: Candida albicans, read-out: MIC Candida albicans
[16] = test system: Candida krusei CCM 8271 (ATCC 6258); experiment: Antifungal microdilution broth (EUCAST); type: cell-based; conditions: Pichia kudriavzevii, read-out: MIC Candida krusei
[17] = test system: Candida parapsilosis CCM 8260 (ATCC 22019); experiment: Antifungal microdilution broth (EUCAST); type: cell-based; conditions: Lodderomyces parapsilosis, read-out: MIC Candida parapsilosis
[18] = test system: Candida tropicalis CCM 8264 (ATCC 750); experiment: Antifungal microdilution broth (EUCAST); type: cell-based; conditions: read-out: MIC Candida tropicalis
[19] = test system: Aspergillus fumigatus ATCC 204305; experiment: Antifungal microdilution broth (EUCAST); type: cell-based; conditions: Aspergillus fumigatus, ATCC204305, read-out: MIC Aspergillus fumigatus
[20] = test system: Aspergillus flavus CCM 8363; experiment: Antifungal microdilution broth (EUCAST); type: cell-based; conditions: Aspergillus flavus, CCM8363, read-out: MIC Aspergillus flavus
[21] = test system: Lichtheimia corymbifera CCM 8077; experiment: Antifungal microdilution broth (EUCAST); type: cell-based; conditions: Lichtheimia corymbifera, CCM8077, read-out: MIC Lichtheimia corymbifera
[22] = test system: Trichophyton interdigitale CCM 8377 (ATCC 9533); experiment: Antifungal microdilution broth (EUCAST); type: cell-based; conditions: Trichophyton interdigitale, read-out: MIC Trichophyton interdigitale
HepG2 cell line = experiment: Cytotoxicity screening, CellTiter 96 assay; conditions: Homo sapiens, HepG2, 24 h, read-out: IC50 HepG2

Structure (SMILES) | MIC [3] [µM] | MIC [4] [µM] | MIC [5] [µM] | MIC [6] [µM] | MIC ([7]; 24h incubation) [µM] | MIC ([7]; 48h incubation) [µM] | MIC ([8]; 24 h) [µM] | MIC ([8]; 48 h) [µM] | MIC ([9]; 24h incubation) [µM] | MIC ([9]; 48h incubation) [µM] | MIC ([10]; 24h incubation) [µM] | MIC ([10]; 48h incubation) [µM] | MIC ([11]; 24h incubation) [µM] | MIC ([11]; 48h incubation) [µM] | MIC ([12]; 24h incubation) [µM] | MIC ([12]; 48h incubation) [µM] | MIC ([13]; 24h incubation) [µM] | MIC ([13]; 48h incubation) [µM] | MIC ([14]; 24h incubation) [µM] | MIC ([14]; 48h incubation) [µM] | further results
O=C(Nc1ccc2c(c1)B(O)OC2)c1nc2ccccc2[nH]c1=O [Compound 18, N-(1-hydroxy-1,3-dihydrobenzo[c][1,2]oxaborol-6-yl)-3-oxo-3,4-dihydroquinoxaline-2-carboxamide] | > 1850 | 48.7 (≈ 15.6 µg/mL) | 24.3 (≈ 7.81 µg/mL) | 24.3 (≈ 7.81 µg/mL) | > 500 | > 500 | > 500 | > 500 | > 500 | > 500 | > 500 | > 500 | > 500 | > 500 | > 500 | > 500 | > 500 | > 500 | > 500 | > 500 | MIC ([1]; read-out: MIC Mtb H37Ra, Middlebrook 7H9, resazurin, recalculated from µg/mL): > 1850 µM; MIC ([2]; pH 6.6, read-out: MIC Mtb H37Rv, MABA, Middlebrook 7H9 pH 6.6, recalculated from µg/mL): > 311 µM; MIC ([15]; 24h incubation): > 125 µM; MIC ([15]; 48h incubation): > 125 µM; MIC ([16]; 24h incubation): > 125 µM; MIC ([16]; 48h incubation): > 125 µM; MIC ([17]; 24h incubation): > 125 µM; MIC ([17]; 48h incubation): > 125 µM; MIC ([18]; 24h incubation): > 125 µM; MIC ([18]; 48h incubation): > 125 µM; MIC ([19]; 24h incubation): > 125 µM; MIC ([19]; 48h incubation): > 125 µM; MIC ([20]; 24h incubation): > 125 µM; MIC ([20]; 48h incubation): > 125 µM; MIC ([21]; 24h incubation): > 125 µM; MIC ([21]; 48h incubation): > 125 µM; MIC ([22]; 72h incubation): > 125 µM; MIC ([22]; 120h incubation): > 125 µM; melting point: 348.9 to 350.2 °C (dec.); IC50 (HepG2 cell line): 244 µM
O=C(Nc1ccc2c(c1)B(O)OC2)c1cnc(O)cn1 [Compound 9, 5-hydroxy-N-(1-hydroxy-1,3-dihydrobenzo[c][1,2]oxaborol-6-yl)pyrazine-2-carboxamide] | 115 (≈ 31.3 µg/mL) | 231 (≈ 62.5 µg/mL) | 231 (≈ 62.5 µg/mL) | 57.6 (≈ 15.6 µg/mL) | > 500 | > 500 | > 500 | > 500 | > 500 | > 500 | > 500 | > 500 | > 500 | > 500 | > 500 | > 500 | > 500 | > 500 | > 500 | > 500 | MIC ([1]; Middlebrook 7H9, resazurin, recalculated from µg/mL, read-out: MIC Mtb H37Ra): 115 µM (≈ 31.3 µg/mL); MIC ([2]; pH 6.6, MABA, Middlebrook 7H9 pH 6.6, recalculated from µg/mL, read-out: MIC Mtb H37Rv): 184 µM (≈ 50 µg/mL); MIC ([15]; 24h incubation): > 500 µM; MIC ([15]; 48h incubation): > 500 µM; MIC ([16]; 24h incubation): > 500 µM; MIC ([16]; 48h incubation): > 500 µM; MIC ([17]; 24h incubation): > 500 µM; MIC ([17]; 48h incubation): > 500 µM; MIC ([18]; 24h incubation): > 500 µM; MIC ([18]; 48h incubation): > 500 µM; MIC ([19]; 24h incubation): > 500 µM; MIC ([19]; 48h incubation): > 500 µM; MIC ([20]; 24h incubation): > 500 µM; MIC ([20]; 48h incubation): > 500 µM; MIC ([21]; 24h incubation): > 500 µM; MIC ([21]; 48h incubation): > 500 µM; MIC ([22]; 72h incubation): > 500 µM; MIC ([22]; 120h incubation): > 500 µM; melting point: 338.3 to 340.1 °C; IC50 (HepG2 cell line): > 1000 µM
